According to patent US8618066B1 (priority 2003, dated 2013):
No end group written: not given here.

B1: Holotricin 3: peptide, source Holotrichia diomphalia (peptide, listed as Holotrichia diomphalia)
chain: YGPGDGHGGGHGGGHGGGHGNGQGGGHGHGPGGGFGGGHGGGHGGGGRGGGGSGGGGSPGHGAGGGYPGGHGGGHHGGYQTHGY
modifications: Holotricin 3
notes: peptide, source Holotrichia diomphalia
B2: NK-Lysin: peptide, source Sus scrofa (peptide, listed as Amaranthus caudatus)
chain: GYFCESCRKIIQKLEDMVGPQPNEDTVTQAASQVCDKLKILRGLCKKIMRSFLRRISWDILTGKKPQAICVDIKICKE

Legend:
[1] = system: Gram+ & Gram− bacteria, fungi, virus, mammalian/cancer cells; conditions: cited from earlier work
[2] = system: Bacillus atrophaeus (B. atrophaeus); assay type: cell-based
[3] = system: Fusarium oxysporum f. sp. lycopersici (F. oxysporum); assay type: cell-based
[4] = system: Fusarium oxysporum f. sp. lycopersici

Molecule | Activity [1] | other results
FRLKFHI [ProteCoat, amino acid polymer consisting essentially of 7 amino acids] | Fungi | % Growth Inhibition, ProteCoat alone [2]: 0%; % Growth Inhibition, ProteCoat alone [3]: 44%
FRLKFHI [antimicrobial peptidic agent-7] | – | growth at the lowest peptide concentration tested [4]: clear retardation of growth; inhibition at the lowest peptide concentration tested ([4]; 48 h, 0.78 mg/ml): less than 10%
Tritrpticin: peptide, source Synthetic (VRRFPWWWPFLRR; Synthetic Tritrpticin) | Gram+ & Gram−, Fungi | –
B1 | Fungi | –
B2 | Gram+ & Gram−, Fungi | –
